Source: paper PMC9080097, “Identification of absorbed constituents and evaluation of the pharmacokinetics of main compounds after oral administration of yindanxinnaotong by UPLC-Q-TOF-MS and UPLC-QqQ-MS” (RSC Advances, 2018)

Assays:
[1] = Pharmacokinetics study in rats after oral administration of YDXNT (UPLC-QqQ-MS of plasma)
Description: (§1) Six milliliters of 75% methanol was added to two milliliters of prepared plasma and then vortexed for 60 s. The mixture was centrifuged at 4000 rpm for 10 min at 4 °C. The supernatant was transferred to another EP tube and dried using a pressure blowing concentrator. The residue was redissolved with 200 μL of 75% methanol, vortexed for 60 s, and then centrifuged at 13 000 rpm for 10 min. To an aliquot of 200 μL plasma, 120 μL of 0.2 mol L^−1 acetic acid–sodium acetate buffer solution (pH = 4.6), 100 μL of the IS baicalein and 80 μL of 980 U mL^−1 β-glucuronidase and sulfatase was added and then vortexed for 1 min. The mixture was hydrolyzed in a water bath at 37 °C for 30 min, and 600 μL acetone was added to stop the hydrolysis. The sample was cooled, followed by vortexing for 2 min and then centrifugation at 13 000 rpm for 10 min. The supernatant fluid was evaporated to dryness under a flow of nitrogen gas.
(§2) Chromatographic analysis was performed using an Agilent 1290 Series UPLC from Agilent Technologies (Palo Alto, CA, USA), equipped with a quaternary pump an online degasser, auto-sampler and column oven. Chromatographic separation was performed on the Agilent ZORBAX SB-Aq C18 column (100 mm × 2.1 mm, 1.8 μm, Agilent, USA). The analytical column temperature was maintained at 30 °C and eluted with a mobile phase comprising 0.1% formic acid in water (A) and acetonitrile (B) using the following gradient program: 25–90% B from 0 to 1 min, 90% B from 1 to 3.5 min, and 90–25% B from 3.5 to 5 min at a flow rate of 0.3 mL min^−1. The equilibration time was 5 min, and the injection volume of sample and reference constituents was 5 μL.
(§3) Mass spectrometry was performed on the Agilent 6490 triple-quadrupole mass spectrometer (Palo Alto, CA, USA) equipped with an atmospheric pressure chemical ionization (APCI) interface. The mass spectrometer was set in negative ionization mode, with the capillary voltage set at 3500 V. The other parameters in the source were set as follows: desolvation gas flow, 15 L min^−1; source temperature, 290 °C; N2 sheath gas temperature, 350 °C; nebulizer gas (N2) pressure, 50 psi; flow, 12 L min^−1. The mass spectrometer scanned in multiple reaction monitoring (MRM) mode.
(§4) Six male rats were used in the pharmacokinetics study. All the rats were orally administered 2.4 g kg^−1 YXCNT suspended in an aqueous solution of 0.5% carboxymethyl cellulose sodium (QCT: 4.118 mg; KMF: 5.067 mg; ISR: 0.965 mg; GA: 1.416 mg; GB: 0.680 mg; GC: 0.796 mg; BB: 0.326 mg; TSIIA: 0.624 mg; SAB: 3.84 mg). After dosing for 0 min, 5 min, 15 min, 20 min, 30 min, 45 min, 1 h, 1.5 h, 2 h, 3 h, 4 h, 6 h, 8 h, 12 h, and 24 h, blood samples (500 μL) were drawn from the retro-orbital plexus of each mouse and collected in heparinized tubes according to the specific schedule. All the collected blood samples were immediately centrifuged at 13 000 rpm for 10 min. The plasma layer was transferred to clean tubes and stored at −20 °C until analysis. The plasma concentrations of QCT, ISR, KMF, GA, GB, GC, BB, TSIIA, and SAB were expressed as the mean ± standard deviation (SD), and the mean concentration–time curve was plotted. Non-compartmental pharmacokinetic parameters were computed using DAS 2.1.1 software.

[2] = Stability of the analytes in rat plasma QC samples (short-term, autosampler, freeze-thaw, long-term); conditions: n = 6
in vivo = conditions: male, Sprague-Dawley, rat, po
Description: as §1, §2, §3, §4

[3] = male, Sprague-Dawley, rat, plasma, po, 4.8 g kg^−1 d^−1
[4] = 1 ng mL^−1, -20°C for four weeks
[5] = 1 ng mL^−1, room temperature for 6 h before sample preparation
[6] = 1 ng mL^−1, room temperature for 12 h in the autosampler after sample preparation
[7] = 1 ng mL^−1, three freeze-thaw cycles -20°C to ambient temperature
[8] = 10 ng mL^−1, -20°C for four weeks
[9] = 10 ng mL^−1, room temperature for 6 h before sample preparation
[10] = 10 ng mL^−1, room temperature for 12 h in the autosampler after sample preparation
[11] = 10 ng mL^−1, three freeze-thaw cycles -20°C to ambient temperature
[12] = 100 ng mL^−1, -20°C for four weeks
[13] = 100 ng mL^−1, room temperature for 6 h before sample preparation
[14] = 100 ng mL^−1, room temperature for 12 h in the autosampler after sample preparation
[15] = 100 ng mL^−1, three freeze-thaw cycles -20°C to ambient temperature
[16] = rat plasma, oral YDXNT 4.8 g kg^−1 d^−1 (2.4 g kg^−1 in source), n = 6, mean ± SD
[17] = rat plasma, oral YDXNT 4.8 g kg^−1 d^−1 (2.4 g kg^−1 in source), n = 6, non-compartmental

AUC(0-inf) [1, 3] [ng·h/mL]	AUC(0-t) [1, 3] [ng·h/mL]	Cmax [1, 3] [ng/mL]	MRT [1, 3] [h]	Tmax [1, 3] [h]	half-life [1, 3] [h]	Compound	Long-term stability Accuracy [2, 4] [%]	Short-term stability Accuracy [2, 5] [%]	Autosampler stability Accuracy [2, 6] [%]	Freeze–thaw strability (three cycles) Accuracy [2, 7] [%]	Long-term stability Accuracy [2, 8] [%]	Short-term stability Accuracy [2, 9] [%]	Autosampler stability Accuracy [2, 10] [%]	Freeze–thaw strability (three cycles) Accuracy [2, 11] [%]	Long-term stability Accuracy [2, 12] [%]	Short-term stability Accuracy [2, 13] [%]	Autosampler stability Accuracy [2, 14] [%]	Freeze–thaw strability (three cycles) Accuracy [2, 15] [%]	also measured
412 ± 82.7	410 ± 73.2	45 ± 11.3	8.44 ± 1.24	0.33 ± 0.11	2.69 ± 0.65	O=c1c(O)c(-c2ccc(O)c(O)c2)oc2cc(O)cc(O)c12 [QCT, quercetin]	97.57 ± 3.42	100.23 ± 1.69	103.73 ± 5.52	98.27 ± 6.33	96.41 ± 5.79	97.45 ± 4.23	99.34 ± 6.73	100.31 ± 4.27	93.17 ± 7.35	95.97 ± 2.36	94.22 ± 5.14	98.35 ± 7.84	–
–	–	–	–	–	–	salvianolic acid B [SAB]	–	–	–	–	–	–	–	–	–	–	–	–	C max [1, 16]: 32.00 ± 15.43 ng/mL; T max [1, 16]: 0.75 ± 0.18 h; AUC0–INF [1, 17]: 135.72 ± 64.24; MRT [1, 17]: 9.46 ± 2.37 h; T 1/2 [1, 17]: 12.17 ± 3.33 h; AUC0–t ([1]; rat plasma, oral YDXNT 4.8 g kg^−1 d^−1 (2.4 g kg^−1 in source), n = 6, sampling to 24 h, non-compartmental): 118.17 ± 58.46; Long-term stability Accuracy ([2]; 5 ng mL^−1, -20°C for four weeks): 102.76 ± 5.39%; Short-term stability Accuracy ([2]; 5 ng mL^−1, room temperature for 6 h before sample preparation): 97.28 ± 2.19%; Autosampler stability Accuracy ([2]; 5 ng mL^−1, room temperature for 12 h in the autosampler after sample preparation): 96.38 ± 8.63%; Freeze–thaw strability (three cycles) Accuracy ([2]; 5 ng mL^−1, three freeze-thaw cycles -20°C to ambient temperature): 99.24 ± 6.68%; Long-term stability Accuracy ([2]; 50 ng mL^−1, -20°C for four weeks): 95.72 ± 6.59%; Short-term stability Accuracy ([2]; 50 ng mL^−1, room temperature for 6 h before sample preparation): 96.44 ± 6.33%; Autosampler stability Accuracy ([2]; 50 ng mL^−1, room temperature for 12 h in the autosampler after sample preparation): 96.41 ± 5.79%; Freeze–thaw strability (three cycles) Accuracy ([2]; 50 ng mL^−1, three freeze-thaw cycles -20°C to ambient temperature): 98.88 ± 3.59%; Long-term stability Accuracy ([2]; 500 ng mL^−1, -20°C for four weeks): 97.38 ± 4.39%; Short-term stability Accuracy ([2]; 500 ng mL^−1, room temperature for 6 h before sample preparation): 95.76 ± 8.18%; Autosampler stability Accuracy ([2]; 500 ng mL^−1, room temperature for 12 h in the autosampler after sample preparation): 93.17 ± 7.35%; Freeze–thaw strability (three cycles) Accuracy ([2]; 500 ng mL^−1, three freeze-thaw cycles -20°C to ambient temperature): 95.47 ± 4.92%
–	–	–	–	–	–	C[C@@H]1C(=O)O[C@H]2C[C@@]34[C@H]5C[C@@H](C(C)(C)C)[C@]36[C@@H](OC(=O)[C@@H]6O)O[C@@]4(C(=O)O5)[C@]21O [GA, ginkgolide A]	98.92 ± 5.81	100.59 ± 6.08	97.28 ± 2.19	102.76 ± 5.39	95.48 ± 10.28	102.54 ± 7.33	98.33 ± 3.46	98.42 ± 2.84	92.19 ± 8.81	98.31 ± 5.29	96.83 ± 8.30	95.44 ± 7.51	AUC(0-inf) (in vivo): 545 ± 78.9 ng·h/mL; AUC(0-t) (in vivo): 491 ± 72.6 ng·h/mL; Cmax (in vivo): 76.3 ± 18.2 ng/mL; MRT (in vivo): 9.42 ± 1.77 h; Tmax (in vivo): 0.75 ± 0.29 h; half-life (in vivo): 7.52 ± 2.08 h
183 ± 77.4	167 ± 69.5	38.3 ± 17.4	9.89 ± 1.5	0.25 ± 0.23	7.04 ± 2.18	Cc1coc2c1C(=O)C(=O)c1c-2ccc2c1CCCC2(C)C [TSIIA, tanshinone IIA]	101.23 ± 8.76	96.50 ± 6.47	102.65 ± 5.28	100.31 ± 4.27	103.21 ± 4.14	101.22 ± 2.09	95.96 ± 3.11	101.22 ± 2.09	94.24 ± 6.63	95.96 ± 3.11	99.15 ± 5.73	95.97 ± 2.36	–
–	–	–	–	–	–	COc1cc(-c2oc3cc(O)cc(O)c3c(=O)c2O)ccc1O [ISR, isorhamnetin]	98.35 ± 6.27	99.24 ± 6.68	98.06 ± 8.29	103.15 ± 5.43	96.44 ± 6.33	96.28 ± 5.89	97.72 ± 3.83	94.52 ± 3.68	95.76 ± 8.18	102.18 ± 4.95	98.34 ± 7.61	99.63 ± 3.38	AUC(0-inf) (in vivo): 384 ± 55.1 ng·h/mL; AUC(0-t) (in vivo): 319 ± 49.3 ng·h/mL; Cmax (in vivo): 27.9 ± 8.38 ng/mL; MRT (in vivo): 13.9 ± 3.71 h; Tmax (in vivo): 0.33 ± 0.14 h; half-life (in vivo): 8.19 ± 2.42 h
539 ± 82.3	401 ± 84.4	49.9 ± 13.8	17.1 ± 4.42	0.5 ± 0.23	8.19 ± 2.42	O=c1c(O)c(-c2ccc(O)cc2)oc2cc(O)cc(O)c12 [KMF, kaempferol]	98.70 ± 9.35	96.50 ± 6.47	99.17 ± 4.39	101.23 ± 8.76	100.48 ± 7.44	101.22 ± 2.09	102.65 ± 5.28	103.21 ± 4.14	95.21 ± 5.96	97.10 ± 3.69	95.96 ± 3.11	94.24 ± 6.63	–

Compound	AUC(0-inf) [1, 3] [ng·h/mL]	AUC(0-t) [1, 3] [ng·h/mL]	Cmax [1, 3] [ng/mL]	MRT [1, 3] [h]	Tmax [1, 3] [h]	half-life [1, 3] [h]	Long-term stability Accuracy [2, 4] [%]	Short-term stability Accuracy [2, 5] [%]	Autosampler stability Accuracy [2, 6] [%]	Freeze–thaw strability (three cycles) Accuracy [2, 7] [%]	Long-term stability Accuracy [2, 8] [%]	Short-term stability Accuracy [2, 9] [%]	Autosampler stability Accuracy [2, 10] [%]	Freeze–thaw strability (three cycles) Accuracy [2, 11] [%]	Long-term stability Accuracy [2, 12] [%]	Short-term stability Accuracy [2, 13] [%]	Autosampler stability Accuracy [2, 14] [%]	Freeze–thaw strability (three cycles) Accuracy [2, 15] [%]	also measured
CC(C)(C)[C@]1(O)CC2OC(=O)CC23C(=O)OC2OC(=O)[C@H](O)C231 (stereo partly drawn) [BB, bilobalide]	384 ± 51.5	366 ± 48.4	48.7 ± 12.3	9.62 ± 3.18	0.75 ± 0.5	5.55 ± 2.67	99.15 ± 5.73	98.10 ± 7.83	103.47 ± 6.75	99.85 ± 6.27	96.38 ± 8.63	99.78 ± 5.25	95.29 ± 2.77	98.88 ± 3.59	95.54 ± 7.76	94.05 ± 2.61	97.44 ± 3.13	95.47 ± 4.92	–
